Assay results published in paper PMC5829251, “NAD^+ analog reveals PARP-1 substrate-blocking mechanism and allosteric communication from catalytic center to DNA-binding domains” (Nature Communications, 2018).

Experiments:
full-length PARP-1 = molecular target: T1, full-length PARP-1 (Homo sapiens, UniProt P09874); experiment: Colorimetric assay of full-length PARP-1 DNA-dependent activity; assay type: biochemical; conditions: 20 nM PARP-1, 40 nM DNA, 50 μM NAD+
T1 construct: Full-length PARP-1 WT (residues 1–1014) was cloned in pET28 vector; made in house; host or cells: E. coli
Procedure: The colorimetric assay was performed as described, [28] using 20 nM of protein and 40 nM DNA (18-bp duplex). A mixture of NAD^+ and biotinylated NAD^+ (bio-NAD^+) was used at a 99:1 ratio and a final concentration of 50 µM. Reactions were allowed to proceed for 5 min before quenching. Three independent experiments were performed.

PARP-1 CAT ΔHD = molecular target: T2, PARP-1 CAT ΔHD (Homo sapiens, UniProt P09874); experiment: DSF, PARP-1 CAT ΔHD; assay type: binding; conditions: for TM: Figure 1e, CAT ΔHD 5 μM, TM without compound 41.26, in °C (unit assumed)
T2 construct: a pET28 construct coding for PARP-1 residues 661-1011; made in house; host or cells: E. coli
Procedure: (§1) DSF experiments were performed as described, [13] using 5 µM protein, 2.5 µM DNA when indicated and various concentrations of compound (BAD, carba-NAD^+, benzamide, and ADP-ribose) as indicated in Fig. 1 and Fig. 3. Experiments were performed on a Roche LightCycler 480 RT-PCR. Reactions including DNA were performed with a 26- or 28-base pair (bp) unphosphorylated oligonucleotide for PARP-1, a 28-bp 5´-phosphorylated (5´P) oligonucleotide for PARP-2, and a 47-bp oligonucleotide including a central 5´P nick for PARP-3^13 in the following buffer: 25 mM Hepes pH 8.0, 150 mM NaCl, 1 mM EDTA, and 0.1 mM TCEP. Reactions with PARP-3 were conducted at lower ionic strength to allow binding to DNA as described (25 mM Hepes pH 8.0, 50 mM NaCl, 1 mM EDTA and 0.1 mM TCEP)[13]. ΔTM values were calculated by subtracting the TM determined for the protein in the absence of compound from the TM determined in the presence of compound. Experiments were performed in triplicate and a Boltzmann sigmoid was fit to the data to determine the TM values (KaleidaGraph).

PARP-1 CAT domain WT = molecular target: T3, PARP-1 CAT domain WT (Homo sapiens, UniProt P09874); experiment: Differential scanning fluorimetry (DSF), PARP-1 CAT WT; assay type: binding; conditions: for TM: Figure 1e, CAT WT 5 μM, TM without compound 51.58, in °C (unit assumed)
T3 construct: The PARP-1 CAT WT (residues 661–1014) was cloned in pET28 vector; made in house; host or cells: E. coli
Procedure: as §1

[1] = 5 μM protein, various amounts of compound

T3 sequence (P09874 661-1014): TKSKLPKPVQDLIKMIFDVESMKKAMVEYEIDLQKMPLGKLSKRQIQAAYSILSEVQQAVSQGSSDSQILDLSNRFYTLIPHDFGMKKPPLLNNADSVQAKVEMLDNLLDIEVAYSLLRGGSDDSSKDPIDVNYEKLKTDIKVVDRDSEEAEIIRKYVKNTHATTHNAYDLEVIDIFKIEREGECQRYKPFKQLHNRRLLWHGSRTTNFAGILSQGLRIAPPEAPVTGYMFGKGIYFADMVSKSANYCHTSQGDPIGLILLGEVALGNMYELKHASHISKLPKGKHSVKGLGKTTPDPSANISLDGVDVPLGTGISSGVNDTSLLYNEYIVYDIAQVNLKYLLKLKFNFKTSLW
T2 sequence (P09874 with tags, fused parts or gaps): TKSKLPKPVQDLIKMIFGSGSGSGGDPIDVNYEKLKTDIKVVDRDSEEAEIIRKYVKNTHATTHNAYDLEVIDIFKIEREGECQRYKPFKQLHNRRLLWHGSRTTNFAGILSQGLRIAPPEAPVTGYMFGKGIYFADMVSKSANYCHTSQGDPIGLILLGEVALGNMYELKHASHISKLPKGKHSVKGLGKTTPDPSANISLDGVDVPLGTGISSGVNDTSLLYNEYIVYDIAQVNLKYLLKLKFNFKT
T1 sequence (P09874 whole entry, the tested form may be a part): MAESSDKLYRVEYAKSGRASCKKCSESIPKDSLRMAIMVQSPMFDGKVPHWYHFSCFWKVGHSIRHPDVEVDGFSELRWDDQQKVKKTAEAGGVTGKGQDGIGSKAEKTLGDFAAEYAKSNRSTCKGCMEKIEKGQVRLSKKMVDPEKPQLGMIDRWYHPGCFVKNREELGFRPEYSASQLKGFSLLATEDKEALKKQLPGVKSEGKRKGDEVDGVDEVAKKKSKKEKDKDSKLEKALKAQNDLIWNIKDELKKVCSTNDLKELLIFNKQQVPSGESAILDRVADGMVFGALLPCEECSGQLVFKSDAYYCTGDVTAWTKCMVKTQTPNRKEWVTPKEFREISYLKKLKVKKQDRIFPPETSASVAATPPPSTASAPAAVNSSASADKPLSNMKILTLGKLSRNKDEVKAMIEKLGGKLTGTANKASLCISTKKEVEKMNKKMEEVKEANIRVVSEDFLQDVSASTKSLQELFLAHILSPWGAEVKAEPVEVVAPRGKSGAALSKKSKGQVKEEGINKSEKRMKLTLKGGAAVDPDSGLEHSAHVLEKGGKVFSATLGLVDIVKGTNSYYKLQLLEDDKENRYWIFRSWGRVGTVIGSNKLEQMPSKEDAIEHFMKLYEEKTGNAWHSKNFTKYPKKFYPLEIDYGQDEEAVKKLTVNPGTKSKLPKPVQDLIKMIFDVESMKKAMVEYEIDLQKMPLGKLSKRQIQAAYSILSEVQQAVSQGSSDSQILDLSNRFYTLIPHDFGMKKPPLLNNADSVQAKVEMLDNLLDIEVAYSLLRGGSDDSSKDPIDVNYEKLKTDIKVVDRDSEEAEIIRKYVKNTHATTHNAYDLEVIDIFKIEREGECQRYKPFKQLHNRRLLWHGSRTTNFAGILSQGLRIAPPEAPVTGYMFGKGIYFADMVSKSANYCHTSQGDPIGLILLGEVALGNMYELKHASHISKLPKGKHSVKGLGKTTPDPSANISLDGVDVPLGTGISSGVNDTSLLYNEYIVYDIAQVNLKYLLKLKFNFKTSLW

change of TM of CAT ΔHD (evidence of binding) (PARP-1 CAT ΔHD; [1]): no evidence of binding | TM (PARP-1 CAT ΔHD; compound 25 µM): 41.46 | TM (PARP-1 CAT ΔHD; compound 150 µM): 41.57 | TM (PARP-1 CAT ΔHD; compound 750 µM): 41.43 | TM (PARP-1 CAT ΔHD; compound 1500 µM): 41.68 | change of apparent TM of PARP-1 CAT WT (evidence of binding) (PARP-1 CAT domain WT; [1]): no evidence of binding | TM (PARP-1 CAT domain WT; compound 25 µM): 51.52 | TM (PARP-1 CAT domain WT; compound 150 µM): 51.61 | TM (PARP-1 CAT domain WT; compound 750 µM): 51.56 | TM (PARP-1 CAT domain WT; compound 1500 µM): 51.53
Compound: Nc1ncnc2c1ncn2C1OC(COP(=O)(O)OP(=O)(O)OCC2OC(O)C(O)C2O)C(O)C1O (centres unmarked) [ADP-ribose]
inhibition of DNA damage-dependent activity of full-length PARP-1 (full-length PARP-1): does not inhibit the reaction
